Results: patent publication US20240400559A1, “SOLID STATE EMITTERS BASED ON PYRIDINIUM SCAFFOLDS” (Council of Scientific and Industrial Research, priority 2021, published 2024)

Test: Solution state photophysical studies (absorption, emission, lifetime) in DMSO
Assay type: physicochemical
Conditions: in DMSO at RT; for λmax (abs.) / λmax (em.): 10 μM; for λmax (em.): under UV light (λexc=365 nm)
Description: For solution state photophysical studies (absorption, emission and lifetime) stock for all compounds (1 mM concentration) were prepared in DMSO solvent. For the measurement, the required volume was added from the stock solution in 1 mL solution to make it final concentration as 10 μM. For aggregation induced emission (AIE) measurement, different ratio of DCM-Hexane solvent mixture (0-99%) was prepared by adding required volume of DCM and Hexane, subsequently measurements were performed by maintaining 10 μM dye concentration in each 1 mL solution.
The AIE images were taken in 5 ml vials which were placed on a handled UV (excitation wavelength 365 nm) instrument. For the solid-state absorption and emission measurements, powder samples were prepared by dissolving compound and BaSO4 in DCM and then evaporated to dryness. Solution Spectra were measured in HORIBA Jobin Yvon Fluorolog using 1 cm path length quartz cuvette. To make the powder more homogenous, mixtures were grinded effectively for few minutes.

Compound	Lifetime	Rel. QY	Stokes shift	λmax (abs.)	λmax (em.)
O=S(=O)([O-])C(F)(F)F.c1ccc(-c2cccc3c4ccccc4cc(-c4ccccc4)[n+]23)cc1 [2a, 4,6-diphenylpyrido[2,1-a]isoquinolin-5-ium trifluoromethanesulfonate]	5.84 ns	0.015	116 nm	392 nm	508 nm
COc1ccc(-c2cccc3c4ccccc4cc(-c4cccc5ccccc45)[n+]23)cc1.O=S(=O)([O-])C(F)(F)F [2aa, 4-(4-methoxyphenyl)-6-(naphthalen-1-yl)pyrido[2,1-a]isoquinolin-5-ium trifluoromethanesulfonate]	4.09 ns	0.062	143 nm	397 nm	540 nm
COc1ccc(-c2cccc3c4ccccc4cc(-c4ccccc4)[n+]23)cc1.O=S(=O)([O-])C(F)(F)F [2f, 4-(4-methoxyphenyl)-6-phenylpyrido[2,1-a]isoquinolin-5-ium trifluoromethane sulfonate]	5.32 ns	0.018	136 nm	404 nm	540 nm
O=S(=O)([O-])C(F)(F)F.c1ccc(-c2cc3ccccc3c3cccc(-c4cc5ccccc5c5ccccc45)[n+]23)cc1 [2j, 4-(phenanthren-9-yl)-6-phenylpyrido[2,1-a]isoquinolin-5-ium trifluoromethane sulfonate]	5.19 ns	0.220	147 nm	397 nm	544 nm
COc1ccc(-c2cccc3c4cc(C)ccc4cc(-c4ccccc4)[n+]23)cc1.O=S(=O)([O-])C(F)(F)F [2m, 4-(4-methoxyphenyl)-10-methyl-6-phenylpyrido[2,1-a]isoquinolin-5-ium trifluoro methanesulfonate]	3.6 ns	0.020	131 nm	409 nm	540 nm
COc1ccc(-c2cccc3c4cc(-c5ccccc5)ccc4cc(-c4ccccc4)[n+]23)cc1.O=S(=O)([O-])C(F)(F)F [2o, 4-(4-methoxyphenyl)-6,10-diphenylpyrido[2,1-a]isoquinolin-5-ium trifluoro methanesulfonate]	3.72 ns	0.036	129 nm	417 nm	546 nm
COc1ccc(-c2cccc3c4cc(-c5cccc6ccccc56)ccc4cc(-c4ccccc4)[n+]23)cc1.O=S(=O)([O-])C(F)(F)F [2p, 4-(4-methoxyphenyl)-10-(naphthalen-1-yl)-6-phenylpyrido[2,1-a]isoquinolin-5-ium trifluoromethanesulfonate]	3.38 ns	0.032	140 nm	412 nm	552 nm
COc1ccc(-c2cccc3c4ccc(C)cc4cc(-c4ccccc4)[n+]23)cc1.O=S(=O)([O-])C(F)(F)F [2r, 4-(4-methoxyphenyl)-9-methyl-6-phenylpyrido[2,1-a]isoquinolin-5-ium trifluoro methanesulfonate]	5.93 ns	0.017	133 nm	405 nm	538 nm
COc1ccc(-c2cccc3c4cc(C)cc(C)c4cc(-c4ccccc4)[n+]23)cc1.O=S(=O)([O-])C(F)(F)F [2t, 4-(4-methoxyphenyl)-8.10-dimethyl-6-phenylpyrido[2,1-a]isoquinolin-5-ium trifluoro methanesulfonate]	4.49 ns	0.024	132 nm	410 nm	542 nm
COc1ccc(-c2cccc3c4cc(OC)cc(OC)c4cc(-c4ccccc4)[n+]23)cc1.O=S(=O)([O-])C(F)(F)F [2u, 8,10-dimethoxy-4-(4-methoxyphenyl)-6-phenylpyrido[2,1-a]isoquinolin-5-ium trifluoromethanesulfonate]	4.2 ns	0.125	172 nm	430 nm	602 nm
COc1ccc(-c2cccc3c4ccccc4cc(-c4cc(OC)cc(OC)c4)[n+]23)cc1.O=S(=O)([O-])C(F)(F)F [2y, 6-(3,5-dimethoxyphenyl)-4-(4-methoxyphenyl)pyrido[2,1-a]isoquinolin-5-ium trifluoromethanesulfonate]	5.72 ns	0.006	139 nm	401 nm	540 nm
